Laboratory results published in publication PMC6043591, “Rpn11-mediated ubiquitin processing in an ancestral archaeal ubiquitination system” (Nature Communications, 2018).

Key:
CsJAMM = target: T1, CsJAMM (Candidatus Caldarchaeum subterraneum, UniProt E6N2R7); experiment: SDS-PAGE of SAMP Csub_C0702 precursor cleavage; assay type: biochemical; conditions: […] SAMP Csub_C0702, […] enzyme, […] °C, pH […] min preincubation
T1 construct: gene CSUB_C0703; N-terminal His6 tag with TEV site; synthetic gene, E. coli
T1 sequence (E6N2R7 1-140): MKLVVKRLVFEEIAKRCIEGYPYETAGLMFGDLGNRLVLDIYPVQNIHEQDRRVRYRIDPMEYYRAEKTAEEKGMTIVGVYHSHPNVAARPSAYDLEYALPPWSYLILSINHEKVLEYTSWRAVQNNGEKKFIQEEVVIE

CsRpn11^Δ149–202 = target: T2, CsRpn11^Δ149–202 (Candidatus Caldarchaeum subterraneum, UniProt E6N8B9); experiment: SDS-PAGE of CsUb-pre cleavage; assay type: biochemical; conditions: 14 µM CsUb-pre, 1.75 µM enzyme, 45 °C, pH 7.5, 10 min preincubation; proposed coordination of catalytic Zn2+
T2 construct: gene CSUB_C1473; JAMM core domain, C-terminal residues 149-202 deleted (full length 202); N-terminal His6 tag with TEV site

[1] = target: truncated CsRpn11^Δ149–202 (Candidatus Caldiarchaeum subterraneum)
[2] = target: truncated CsRpn11^Δ149–202 (Candidatus Caldiarchaeum subterraneum); experiment: MST; 50 nM NT-647-labeled CsRpn11^Δ149–202 mixed with a serial 1:1 dilution of CsUb from 47 nM to 770 µM; 45 °C; Monolith NT.115, MST power 80%, laser intensity 40%; three independent experiments

Compound	SDS-PAGE of SAMP Csub_C0702 precursor cleavage (CsJAMM)	SDS-PAGE of CsUb-pre cleavage (CsRpn11^Δ149–202)	KM of CsUb-pre cleavage by Co^2+-bound CsRpn11^Δ149–202 at 45 °C, quantified from SDS-PAGE bands [1]	Kd [2]
CC(=O)Nc1c2sscc-2n(C)c1=O [thiolutin]	effects on CsJAMM-mediated CsSAMP processing were significantly weaker	CsUb-pre processing by CsRpn11 was strongly affected by both 8-TQ and thiolutin		
CsUb precursor (CsUb-pre) (natural protein)			17.8 µM	
mature C. subterraneum ubiquitin CsUb (natural protein)				14.6 µM
Sc1cccc2cccnc12 [8-thioquinoline]	effects on CsJAMM-mediated CsSAMP processing were significantly weaker	CsUb-pre processing by CsRpn11 was strongly affected by both 8-TQ and thiolutin		
